Experimental data published in paper PMC11887451, “Leveraging Immunogenic Cell Death to Enhance the Immune Response against Malignant Pleural Mesothelioma Tumors” (Journal of the American Chemical Society, 2025).
Entries after “also recorded” stand apart in the source; their conditions may differ.

What was measured:
HMGB1 in AB12 cells = experiment: HMGB1 detection, flow cytometry; type: cell-based, mouse; conditions: AB12, 5 × IC50 (72 h), 240 min
Description: AB12 cells were seeded into Cellstar 6-well plates (Greiner Bio-One) at a density of 5 × 10^5 cells per well (2 ml per well). The cells were allowed to resume exponential growth for 16 h. […] After the treatment, the supernatant was collected in 2 mL microtubes. The wells were washed with 1 ml of PBS, trypsinized with 300 μL of trypsin at 37 °C for 5 min and combined with the corresponding supernatant. The cell suspension was then centrifuged (300  g, 10 min), washed with PBS (2  1 ml). […] RT, washed once with 1 mL PBS and centrifuged (500  g, 10 min). Next, cells were incubated with HMGB1 antibody (Catalogue number: 3935, Cell Signaling Technology) at 4 °C overnight (1:500 dilution in PBS) and washed with 1 ml of PBS (500  g, 10 min). […] The cells were excited by the 488 nm laser, and fluorescence S24 page 25: emission was detected at 525/40 nm for FITC (CRT). The resulting dot blots were acquired from 10,000 events and quantified using Flowjo software (version 10.8.0, BD Biosciences, San Jose, CA, USA).

[1] = test system: panel of seven MPM cell lines; experiment: MTT cytotoxicity assay, 72 h, whole panel (summary ranges); type: cell-based; conditions: read-out: cytotoxicity range across the cell line panel
Description: Human malignant mesothelioma cancer cell lines JU77 and LO68 were obtained from Cell Bank Australia (Children's Medical Research Institute, Westmead, Australia). Mouse malignant mesothelioma cancer cell line AB12, human nonmalignant mesothelioma cancer cell line Met5A (mesothelial cells), mouse macrophage cell line J774 and human monocytic cell line THP-1 were obtained from American Type Culture Collection (ATCC) (Rockville, MD, USA). Human malignant mesothelioma cell lines VMC23 (epithelial), Meso82 (sarcomatous), Meso92 (biphasic), were kindly provided by Prof. Walter Berger (Medical University of Vienna). All cells except for J774 were cultured in RPMI and J774 cells were cultured in DMEM. Both types of media were supplemented with 10% FBS and 1% penicillin-streptomycin (10,000 U/mL). Cells were grown in tissue culture flasks (75 cm2 and 25 cm2, SPL Life Sciences Co., Ltd., Korea). All cell lines were grown at 37 °C in a humidified atmosphere of 95% air and 5% CO 2 and passaged when they reached 80–90% confluency. All Au stock solutions were prepared in 1% DMSO in the respected medium, ensuring that cell viability was not inhibited. […]
The cytotoxicity of compounds was determined using an MTT colorimetric test. […]
incubated for an additional 50 min. […] Optical densities were measured at 570 nm using a BioTek Synergy H1 microplate and MultiskanTM SkyHigh plate readers. […]

[2] = test system: AB12 cells in BALB/c mice; experiment: In vivo vaccination model; parameters: species or system mouse; conditions: n = 8
Description: Initially, AB12 cells underwent pretreatment with varying concentrations of Au(III) complexes, and the induced cell death and release of desired ICD biomarkers were monitored over time. Upon reaching a cell death rate of 65%–75%, BALB/c mice (n = 8) were subcutaneously injected in the left flank with a vaccine containing 3 × 10^5 of live/dying/dead cells, while the vehicle group received injections of PBS. Seven days postvaccine administration, the immunized mice were rechallenged by inoculating the same number of live AB12 cells (without any prior treatment) into the right flanks (Figure 5A). The progression of tumor growth on the right flanks was monitored using a caliper.
AB12 cells were seeded into Cellstar 24-well plates (Greiner Bio-One) at a density of 1.8 × 104
cells/ml (1 ml per well) and allowed to grow exponentially for 16 hours. Subsequently, the
medium was replaced with 1 ml of fresh medium containing compounds of interest at
predetermined concentrations (with a minimum of 4 wells per treatment condition). These
concentrations were selected to induce 65-75% cell death.
Subsequently, the culture
medium was aspirated, and the cells were washed twice with 1 mL of PBS. The cell
concentration was adjusted to 3 × 10^5 cells (including dead/dying/live cells) per 100 μL of PBS,
and the ratio of dead/live cells was assessed using the Invitrogen Countess 3 cell counter. In
the subsequent experiment, BALB/c mice (8 mice per group) were subcutaneously injected
with 0.1 mL of AB12 cells (3 × 10^5 cells/mL, including dead/dying/live cells) or the
corresponding vehicle (PBS) on the left flank. Tumor growth was monitored daily.
After 7 days, the mice were subcutaneously injected with
0.1 mL of AB12 cells (3 × 10^5 cells/mL, live cells) on the right flank. Regular measurements
of body weights and tumor sizes were taken. Mice that developed palpable tumors were
euthanized for further analysis.

AB12 cells = experiment: Annexin V/PI assay (necrosis), flow cytometry; type: cell-based, mouse; conditions: AB12, 5 × IC50 (72 h), 100 min
Description: centrifugation of the cells (300 × g, 5 min), 5 ml of fresh RPMI was introduced, and the cells were seeded at a density of 5 x 10^5 cells per well into Cellstar 6-well plates (Greiner Bio-One) (1 ml per well). J774 macrophages (70-80% confluence in a T75 flask) were detached by scraping, centrifuged (300 × g, 5 min). The medium was substituted with 1 ml of DMEM containing CellTracker Green CMFDA (1 μM) and the J774 macrophages were stained at 37°C for 30 minutes. Following centrifugation of the J774 macrophages (300 × g, 5 min), 5 ml of fresh DMEM was introduced, and the macrophages were seeded into a 100 cm2 petri dish (SPL Life Sciences, Korea). After 24 h, the media in AB12 cells was replaced with 1 ml of fresh RPMI containing compounds of interest at equipotent concentration of 5 × IC50 and incubated for 100 minutes. After removing the drug-containing media, the cells were trypsinized (0.5 ml), neutralized with 1 ml of RPMI, centrifuged (300 × g, 5 min) and counted. From each sample, 2 × 10^5 AB12 cells were seeded into Cellstar 6-well plates (Greiner Bio-One) (1 ml per well).
2 × 10^5 J774 macrophages were detached from a petri dish by scraping and added to AB12 cells into 6-well plates. AB12 cells and J774 macrophages were co-incubated for 16 h at 37°C and 5% CO2, detached by scraping, centrifuged (300 × g, 5 min), and the pellets were resuspended in PBS for immediate analysis using a CytoFLEX Flow Cytometer (Beckman Coulter, USA). The percentage of phagocytosis was determined by calculating the number of double-positive macrophages (Q2) over the total number of macrophages (Q2 + Q3). Dot plots […]
analysis of the flow cytometry data. […]
concentrations for 100 min at 37 °C. […] Cell death was evaluated by flow cytometry using a CytoFLEX Flow Cytometer equipped with a 488 nm laser and a 638 nm laser (Beckman Coulter, Brea, CA, USA). The cells were excited by the 488 nm laser, and fluorescence emissions were detected at 525/40 nm for FITC (Annexin V) and at 610/20 nm for ECD (PI).
The percentage of necrosis was determined by calculating the sum of cells in Q1 and Q2. […]

[3] = test system: M0-differentiated THP-1 cells; experiment: MTT-based viability assay on M0-differentiated THP-1 cells, 72 h; type: cell-based, human; conditions: 72-h exposure, compared with AB12 cells
Description: incubated for an additional 50 min. Subsequently, the medium was aspirated, and the purple formazan crystals formed in viable cells were dissolved in DMSO (100 μL/well). Optical densities were measured at 570 nm using a BioTek Synergy H1 microplate and MultiskanTM SkyHigh plate readers. The quantity of viable cells was expressed in terms of treated/control (T/C) values in comparison to untreated control cells, and 50% inhibitory concentrations (IC 50) were calculated from concentration-effect curves by interpolation. An evaluation was based on means from at least three independent experiments, each comprising three replicat es per […]
For macrophage analyses, the acute monocytic leukemia -derived THP-1 cell line (ATCC) was used as a model. 1 × 104 THP-1 cells were seeded per well in 96-well plates in RPMI-1640 with 10% FCS and treated for 24 h with 75 nM phorbol 12-myristate 13-acetate (PMA, Sigma-Aldrich) to induce M0 macrophage differentiation. After the differentiation period, PMA was replaced by fresh culture medium to recover for 2h. Afterwards increasing concentrations of 1G, 5A, 5B and 5G were added for a 72-h continuous drug exposure assay. In parallel, the murine mesothelioma cell line AB12 was seeded into 96 -well plates at 2.5 × 10^3 cells/well and were allowed to attach for 24 h. Gold compounds were added to the cells as described for the THP-1 model above. After the incubation period of 72 h, cell viability was determined by an MTT-based assay (EU4U, Biomedica) following the instructions of the manufacturer. DMSO had not impact on the cell viability at the concentrations used. […]

SMILES	HMGB1 expression (in words) (HMGB1 in AB12 cells)	IC50 [1]	mice that developed tumors by Day 51 [2]	necrosis level (Q1 + Q2) (AB12 cells)	sensitivity of THP-1-derived macrophages [3]
Nc1nc2[nH]cc(CCc3ccc(C(=O)N[C@@H](CCC(=O)O)C(=O)O)cc3)c2c(=O)[nH]1 [Pemetrexed, pemetrexed, reference compound]	significant increase in HMGB1 expression	23 to 300 nM	four of the eight	–	–
F[P-](F)(F)(F)(F)F.c1cc[c]2c(c1)Nc1cccc[n+]1[Au-]21[S]C(=[N+]2CCCCCC2)[S]1 (centres unmarked) [5G]	–	–	–	6%–8%	highly sensitive; also recorded: increased sensitivity in comparison to the malignant mesothelioma cells
